# Literature values as cited in article PMC9371267 (PLoS Biology, 2022).
# B1: spexin (peptide, UniProt Q9BT56 27-116, looked up)
# Spexin: APQRLLERRNWTPQAMLYLKGAQGRRFISDQSRRKDLSDRPLPERRSPNPQLLTIPEAATILLASLQKSPEDEEKNFDQTRFLEDSLLNW
# modifications: Spexin
# Tests used:
# GALR2 = conditions: endogenous ligands; ref [13]; cited from earlier work
# Text: (§1) Activated GPCRs act as nucleotide exchange factors through direct interactions with heterotrimeric G-proteins. The C-terminal helix of mGαqiN fits into a hydrophobic pocket formed by TM 5–7 of GALR2 (Fig 1B). Phe228, Ile235, Asn239, and Tyr243 of mGαqiN form the principal interface with GALR2, and a salt bridge forms between Glu135^ICL2 of GALR2 and Arg32 of mGαqiN (Fig 1B). […] The modeled fra ...
# GALRs = conditions: Trp2 replaced with alanine; ref [4]; cited from earlier work
# Text: as §1
# GALR2 vs GALR1 = conditions: GALR2 over GALR1; ref [3]–[5]; cited from earlier work
# Text: Its GPCR family receptors (from GALR1 to GALR3) are associated with different disease states and have been used as markers for certain cancer types. […] Agonists for GALR2 are be ...
# GALR2 and GALR3 vs GALR1 = conditions: ref [3],[14]; cited from earlier work
# Text: Phe264 and Leu266 in ECL3 contact Leu10^P and Trp2^P ...
molecule,measurement,setting,value
"galanin-like peptide (APAHRGRGGWTLNSAGYLLGPVLHLPQMGDQDGKRETALEILDLWKAIDGLPYSHPPQPS; Galanin-like peptide; UniProt Q9UBC7 25-84, looked up) [GALP]",activation of GALR2,GALR2,activate GALR2
"Trp2^P of galanin with alanine: galanin with Trp2^P replaced with alanine (GATLNSAGYLLGPHAVGNHRSFSDKNGLTS; Galanin; UniProt P22466 33-62, looked up, variant W2A)",binding to GALRs,GALRs,prevents binding to GALRs
galanin^2–11: truncated peptide galanin^2–11,binds to GALR2 more tightly than GALR1,GALR2 vs GALR1,roughly 500 times
same,receptor specificity,GALR2 and GALR3 vs GALR1,specificity for GALR2 and GALR3 over GALR1
B1,activation of GALR2,GALR2,activate GALR2
